This note sets out measurements from article PMC6858350, “A common mechanism allows selective targeting of GluN2B subunit-containing N-methyl-D-aspartate receptors” (Communications Biology, 2019).

Experiment [1] concerns the target GluN1-1a/GluN2B NMDAR (wildtype) (Rattus norvegicus, UniProt P35439+Q00960). The class given is cell-based. Conditions: for IC50 / p (slope of the dose-response curve) / A2 ± SE (maximum inhibition from dose-response curve): TEVC; for IC50: holding potential −70 mV, 10 µM glycine and 10 µM (S)-glutamate, read-out: IC50 ± SE; for p (slope of the dose-response curve) / A2 ± SE (maximum inhibition from dose-response curve): −70 mV; for A2 ± SE (maximum inhibition from dose-response curve): flexible A2; for IC50 shift compared to rac-1: wildtype GluN1-1a/GluN2B, IC50 increase relative to rac-1; for inhibition at 10 µM: read-out: ion current inhibition % ± SEM, GluN2B; for A2 (maximum inhibition), set as identical with rac-1: due to non-saturating inhibition A2 was fixed, not fitted.

In experiment [2] the target is T1, GluN1-1a WT/GluN2B F114A (Rattus norvegicus, UniProt P35439+Q00960, F114A). The experiment can be described thus: cell-based.
The target of experiment [3] is T2, GluN1-1a WT/GluN2B F176Y (Rattus norvegicus, UniProt P35439+Q00960, F176Y). Particulars: GluN2B F176Y; for A2, fixed-to-wildtype (*): maximum inhibition fixed to wildtype value.
Experiment [4] addresses T3, GluN1-1a Y109S/GluN2B WT (Rattus norvegicus, UniProt P35439+Q00960, Y109S). The experiment in a line: cell-based.
The target in experiment [5] is T4, GluN1-1a WT/GluN2B F176A (Rattus norvegicus, UniProt P35439+Q00960, F176A). The experiment in a line: cell-based.
Experiment [6] has as its target T5, GluN1-1a WT/GluN2B Q110A (Rattus norvegicus, UniProt P35439+Q00960, Q110A). Conditions: GluN2B Q110A; for A2 ± SE: flexible A2.
The target of the next experiment is GluN1-1a/GluN2A NMDAR (Rattus norvegicus, UniProt P35439+Q00959). The experiment can be described thus: cell-based. Particulars: read-out: ion current inhibition % ± SEM, GluN2A.
Experiment [7] addresses T6, GluN1-1a WT/GluN2B I111A (Rattus norvegicus, UniProt P35439+Q00960, I111A). The experiment can be described thus: cell-based.
For experiment [8], the target named is T7, GluN1-1a F113S/GluN2B WT (Rattus norvegicus, UniProt P35439+Q00960, F113S). Conditions: GluN1-1a F113S; for A2 ± SE: flexible A2.
T7 sequence (Q00960 27-1482, other chains not shown): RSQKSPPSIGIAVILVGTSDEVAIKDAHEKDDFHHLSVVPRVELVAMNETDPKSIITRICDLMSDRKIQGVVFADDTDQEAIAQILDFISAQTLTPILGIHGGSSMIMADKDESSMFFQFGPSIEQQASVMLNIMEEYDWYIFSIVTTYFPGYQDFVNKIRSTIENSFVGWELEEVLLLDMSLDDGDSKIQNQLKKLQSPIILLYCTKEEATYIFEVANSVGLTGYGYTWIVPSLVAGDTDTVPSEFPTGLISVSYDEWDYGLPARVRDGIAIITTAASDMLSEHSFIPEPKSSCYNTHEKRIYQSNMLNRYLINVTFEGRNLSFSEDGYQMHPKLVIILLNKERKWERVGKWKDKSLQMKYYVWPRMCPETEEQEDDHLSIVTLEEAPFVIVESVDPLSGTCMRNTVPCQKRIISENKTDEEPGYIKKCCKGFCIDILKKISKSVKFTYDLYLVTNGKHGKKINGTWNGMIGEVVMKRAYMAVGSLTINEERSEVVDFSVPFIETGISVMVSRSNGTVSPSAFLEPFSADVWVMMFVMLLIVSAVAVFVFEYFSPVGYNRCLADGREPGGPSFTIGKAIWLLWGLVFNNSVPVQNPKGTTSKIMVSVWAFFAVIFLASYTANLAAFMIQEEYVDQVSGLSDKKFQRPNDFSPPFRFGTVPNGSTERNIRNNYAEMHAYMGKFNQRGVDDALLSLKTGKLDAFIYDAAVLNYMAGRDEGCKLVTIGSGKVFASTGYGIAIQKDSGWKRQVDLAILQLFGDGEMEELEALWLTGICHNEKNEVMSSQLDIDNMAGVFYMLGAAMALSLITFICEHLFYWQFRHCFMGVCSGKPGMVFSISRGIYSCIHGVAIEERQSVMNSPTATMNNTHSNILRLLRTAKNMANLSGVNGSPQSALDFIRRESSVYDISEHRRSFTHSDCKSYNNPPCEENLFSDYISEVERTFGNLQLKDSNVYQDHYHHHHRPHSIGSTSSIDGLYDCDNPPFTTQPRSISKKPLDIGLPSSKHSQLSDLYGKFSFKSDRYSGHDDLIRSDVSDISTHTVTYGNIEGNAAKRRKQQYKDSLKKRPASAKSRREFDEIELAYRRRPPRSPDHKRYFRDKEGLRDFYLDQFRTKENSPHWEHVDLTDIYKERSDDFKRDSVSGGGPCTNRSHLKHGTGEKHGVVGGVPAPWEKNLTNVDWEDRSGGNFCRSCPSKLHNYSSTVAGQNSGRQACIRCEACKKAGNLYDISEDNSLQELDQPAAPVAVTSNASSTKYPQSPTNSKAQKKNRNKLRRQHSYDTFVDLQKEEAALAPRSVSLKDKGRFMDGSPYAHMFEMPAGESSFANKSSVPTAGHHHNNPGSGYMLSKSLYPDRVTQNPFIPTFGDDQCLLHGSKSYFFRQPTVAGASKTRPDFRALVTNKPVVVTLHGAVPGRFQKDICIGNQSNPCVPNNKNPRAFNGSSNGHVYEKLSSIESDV
Experiment [9] deals with T8, GluN1-1a L135N/GluN2B WT (Rattus norvegicus, UniProt P35439+Q00960, L135N). The experiment can be described thus: cell-based.
For experiment [10], the target named is T2, GluN1-1a WT/GluN2B F176Y. The experiment in a line: cell-based.
In a further experiment the target is GluN1-1a/GluN2D NMDAR (Rattus norvegicus, UniProt P35439+Q62645). The experiment can be described thus: cell-based. Conditions: read-out: ion current inhibition % ± SEM, GluN2D.
The target of experiment [11] is T8, GluN1-1a L135N/GluN2B WT. Particulars: GluN1-1a L135N; for A2 ± SE: flexible A2.
For experiment [12], the target named is T1, GluN1-1a WT/GluN2B F114A. Particulars: GluN2B F114A; for A2, fixed-to-wildtype (*): maximum inhibition fixed to wildtype value.
Experiment [13] concerns the target T9, GluN1-1a S132A/GluN2B WT (Rattus norvegicus, UniProt P35439+Q00960, S132A). Particulars: GluN1-1a S132A; for A2 ± SE: flexible A2.
Experiment [14] deals with NMDA receptor-dependent EPSCs in CA1 pyramidal neurons. The experiment can be described thus: whole cell patch-clamp of evoked NMDAR-dependent EPSCs in hippocampal slices. In kind it is cell-based, C57BL/6J mice. Conditions: n = 5; for EPSC amplitude after washout, % of the initial baseline (SEM): washout of compound.
Experiment [15] deals with T3, GluN1-1a Y109S/GluN2B WT. Conditions: GluN1-1a Y109S; for A2 ± SE: flexible A2.
Experiment [16] concerns the target T10, GluN1-1a WT/GluN2B E236A (Rattus norvegicus, UniProt P35439+Q00960, E236A). The experiment in a line: cell-based.
For experiment [17], the target named is T6, GluN1-1a WT/GluN2B I111A. Particulars: GluN2B I111A; for A2 ± SE: flexible A2.
The target in the next experiment is GluN1-1a/GluN2C NMDAR (Rattus norvegicus, UniProt P35439+Q00961). The experiment can be described thus: cell-based. Particulars: read-out: ion current inhibition % ± SEM, GluN2C.
The target in experiment [18] is T5, GluN1-1a WT/GluN2B Q110A. The experiment can be described thus: cell-based.
For experiment [19], the target named is T4, GluN1-1a WT/GluN2B F176A. Conditions: GluN2B F176A; for A2, fixed-to-wildtype (*): maximum inhibition fixed to wildtype value.
For experiment [20], the target named is T9, GluN1-1a S132A/GluN2B WT. The experiment in a line: cell-based.
The target in experiment [21] is T7, GluN1-1a F113S/GluN2B WT. The experiment in a line: cell-based.
Experiment [22] concerns the target T10, GluN1-1a WT/GluN2B E236A. Conditions: GluN2B E236A; for A2 ± SE: flexible A2.

One may read the IC50 as the point on the concentration scale where inhibition reaches its midpoint. For orientation: inhibition means the share of the control response that was lost under treatment.

Marks after values point to notes of the source that are not given here.

T10 sequence (Q00960 27-1482 E236A, other chains not shown): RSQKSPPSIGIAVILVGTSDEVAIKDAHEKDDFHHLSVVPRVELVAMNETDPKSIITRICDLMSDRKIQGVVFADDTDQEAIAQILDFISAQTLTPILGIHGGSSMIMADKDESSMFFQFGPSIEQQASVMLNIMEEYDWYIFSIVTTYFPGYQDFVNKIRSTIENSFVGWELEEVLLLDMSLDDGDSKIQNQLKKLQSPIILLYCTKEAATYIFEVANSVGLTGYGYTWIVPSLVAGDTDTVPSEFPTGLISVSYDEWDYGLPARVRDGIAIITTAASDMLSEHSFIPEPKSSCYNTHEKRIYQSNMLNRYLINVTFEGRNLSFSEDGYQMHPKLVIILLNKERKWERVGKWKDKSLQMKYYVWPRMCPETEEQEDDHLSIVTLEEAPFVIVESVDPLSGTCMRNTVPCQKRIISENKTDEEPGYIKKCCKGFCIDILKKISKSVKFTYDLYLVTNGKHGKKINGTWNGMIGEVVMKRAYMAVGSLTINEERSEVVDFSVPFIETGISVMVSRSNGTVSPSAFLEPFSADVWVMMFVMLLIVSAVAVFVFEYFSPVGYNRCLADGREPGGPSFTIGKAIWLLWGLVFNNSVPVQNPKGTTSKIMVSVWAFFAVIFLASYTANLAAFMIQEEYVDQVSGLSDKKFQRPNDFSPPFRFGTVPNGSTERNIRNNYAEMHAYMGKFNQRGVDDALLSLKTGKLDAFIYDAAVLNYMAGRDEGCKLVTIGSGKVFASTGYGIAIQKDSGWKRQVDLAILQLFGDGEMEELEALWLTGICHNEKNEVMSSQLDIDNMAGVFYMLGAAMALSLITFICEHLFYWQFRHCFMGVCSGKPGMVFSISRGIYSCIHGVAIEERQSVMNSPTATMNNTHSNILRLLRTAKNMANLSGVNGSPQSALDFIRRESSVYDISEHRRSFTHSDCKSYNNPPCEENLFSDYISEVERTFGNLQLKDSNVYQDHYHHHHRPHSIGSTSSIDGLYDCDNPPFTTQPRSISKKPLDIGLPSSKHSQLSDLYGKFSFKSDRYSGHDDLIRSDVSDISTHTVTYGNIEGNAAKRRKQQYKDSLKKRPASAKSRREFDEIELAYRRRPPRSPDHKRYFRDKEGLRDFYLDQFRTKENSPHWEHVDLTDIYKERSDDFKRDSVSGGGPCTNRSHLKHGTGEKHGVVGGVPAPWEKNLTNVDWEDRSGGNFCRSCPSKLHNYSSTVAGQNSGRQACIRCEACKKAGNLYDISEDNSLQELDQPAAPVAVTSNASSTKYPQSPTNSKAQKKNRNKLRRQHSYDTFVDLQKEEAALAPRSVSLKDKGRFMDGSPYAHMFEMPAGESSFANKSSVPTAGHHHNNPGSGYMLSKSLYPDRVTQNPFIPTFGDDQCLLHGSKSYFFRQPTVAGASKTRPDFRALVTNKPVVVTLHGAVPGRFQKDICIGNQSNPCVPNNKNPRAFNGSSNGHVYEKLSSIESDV
T5 sequence (Q00960 27-1482 Q110A, other chains not shown): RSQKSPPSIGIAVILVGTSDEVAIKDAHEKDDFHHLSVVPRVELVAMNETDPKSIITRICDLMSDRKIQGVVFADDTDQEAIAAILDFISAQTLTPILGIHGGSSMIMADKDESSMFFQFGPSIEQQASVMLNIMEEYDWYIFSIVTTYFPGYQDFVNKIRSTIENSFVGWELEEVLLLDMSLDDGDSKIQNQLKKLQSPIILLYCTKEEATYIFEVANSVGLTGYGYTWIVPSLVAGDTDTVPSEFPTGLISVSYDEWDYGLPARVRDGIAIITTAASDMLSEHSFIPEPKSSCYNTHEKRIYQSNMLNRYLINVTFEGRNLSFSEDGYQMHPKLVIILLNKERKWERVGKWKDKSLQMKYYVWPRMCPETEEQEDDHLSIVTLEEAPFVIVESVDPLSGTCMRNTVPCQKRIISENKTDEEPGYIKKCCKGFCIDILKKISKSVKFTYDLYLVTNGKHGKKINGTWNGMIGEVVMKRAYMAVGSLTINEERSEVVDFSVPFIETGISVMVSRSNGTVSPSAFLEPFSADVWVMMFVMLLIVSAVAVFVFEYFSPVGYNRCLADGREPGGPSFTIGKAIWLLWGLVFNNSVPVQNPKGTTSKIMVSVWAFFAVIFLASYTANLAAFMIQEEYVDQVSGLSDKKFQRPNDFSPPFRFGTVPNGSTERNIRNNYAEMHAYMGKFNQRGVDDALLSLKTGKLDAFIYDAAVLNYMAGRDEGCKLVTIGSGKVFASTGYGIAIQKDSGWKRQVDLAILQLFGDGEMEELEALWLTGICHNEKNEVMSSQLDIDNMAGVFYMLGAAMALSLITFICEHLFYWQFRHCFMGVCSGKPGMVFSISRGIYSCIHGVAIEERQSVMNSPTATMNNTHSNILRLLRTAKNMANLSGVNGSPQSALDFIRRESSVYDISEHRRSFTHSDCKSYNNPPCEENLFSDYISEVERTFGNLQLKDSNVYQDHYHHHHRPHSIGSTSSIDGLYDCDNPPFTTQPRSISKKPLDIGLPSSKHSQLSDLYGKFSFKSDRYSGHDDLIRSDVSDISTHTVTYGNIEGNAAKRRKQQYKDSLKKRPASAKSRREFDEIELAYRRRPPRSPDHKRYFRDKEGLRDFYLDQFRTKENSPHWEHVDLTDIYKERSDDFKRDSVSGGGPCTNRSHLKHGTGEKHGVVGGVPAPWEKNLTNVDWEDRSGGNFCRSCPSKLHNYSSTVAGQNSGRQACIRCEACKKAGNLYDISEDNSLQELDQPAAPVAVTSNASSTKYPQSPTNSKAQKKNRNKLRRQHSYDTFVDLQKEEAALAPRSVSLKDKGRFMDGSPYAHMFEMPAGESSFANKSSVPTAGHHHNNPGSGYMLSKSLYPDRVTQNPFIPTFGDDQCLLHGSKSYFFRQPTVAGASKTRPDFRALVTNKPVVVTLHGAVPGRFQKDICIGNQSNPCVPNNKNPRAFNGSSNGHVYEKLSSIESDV

`COc1ccc2c(c1)CCN(CCCCc1ccccc1)CC2O` (stereo not drawn) [compound 4]: in experiment [1] (wildtype), the IC50 worked out at 1300 ± 483 nM, the “p (slope of the dose-response curve)” value turned out to be 0.70 and the “A2 ± SE (maximum inhibition from dose-response curve)” value stood at 100 ± 9%. The “IC50 shift compared to rac-1” value in experiment [1] was found to be 14 fold.

On to `Oc1ccc2c(c1)CCN(CCCCc1ccccc1)CC2` [compound 3], for which, in experiment [1] (wildtype), the IC50 came to 3370 ± 926 nM, the “p (slope of the dose-response curve)” value is given as 0.93 and the “A2 ± SE (maximum inhibition from dose-response curve)” value amounted to 92 ± 8%. Also, the “IC50 shift compared to rac-1” value in experiment [1] was determined as 36 fold.

In the case of `c1ccc(CCCCN2CCc3ccccc3CC2)cc1` [compound 5], in experiment [1] (compound concentration 30 µM, wildtype), the “Inhibition (% ± SEM) of ion flux” value is “almost inactive”. Also, the inhibition at 30 µM in [1] (compound concentration 30 µM, wildtype, read-out: Inhibition (% ± SEM) of ion flux) came to 9 ± 2%.

With `Oc1ccc2c(c1)CCN(CCCCc1ccccc1)C[C@@H]2O` [compound (R)-1], the 50% inhibitory concentration (IC50) was found to be 4080 ± 423 nM against GluN1-1a WT/GluN2B F114A [2]; 20 ± 2 nM at GluN1-1a Y109S/GluN2B WT [4]; 105000 ± 41000 nM at GluN1-1a WT/GluN2B F176A [5]; 137 ± 31 nM at GluN1-1a WT/GluN2B I111A [7]; 293 ± 74 nM against GluN1-1a L135N/GluN2B WT [9]; 107 ± 20 nM against GluN1-1a WT/GluN2B F176Y [10]. Further, the IC50 in experiment [1] (wildtype) was found to be 53 ± 3 nM; against GluN1-1a WT/GluN2B E236A [16], 194 ± 30 nM; against GluN1-1a WT/GluN2B Q110A [18] it was 393 ± 24 nM; against GluN1-1a S132A/GluN2B WT [20], 106 ± 14 nM; on GluN1-1a F113S/GluN2B WT [21], 117 ± 48 nM. Besides, the “p (slope)” value was determined as 0.82 at GluN1-1a WT/GluN2B F176Y [3]; 2.18 at GluN1-1a WT/GluN2B Q110A [6]; 0.50 at GluN1-1a F113S/GluN2B WT [8]; 0.66 on GluN1-1a L135N/GluN2B WT [11]; 1.35 on GluN1-1a WT/GluN2B F114A [12]; 1.42 at GluN1-1a Y109S/GluN2B WT [15]. Further, the “p (slope)” value at GluN1-1a WT/GluN2B I111A [17] came out at 0.92; on GluN1-1a WT/GluN2B F176A [19], 0.40; at GluN1-1a WT/GluN2B E236A [22], 1.32. The “A2, fixed-to-wildtype (*)” value at GluN1-1a WT/GluN2B F176Y [3], at GluN1-1a WT/GluN2B F114A [12] and at GluN1-1a WT/GluN2B F176A [19] was 93% in each case. For the same molecule, the “A2 ± SE” value came out at 91 ± 1% at GluN1-1a WT/GluN2B Q110A [6]; 77 ± 5% at GluN1-1a F113S/GluN2B WT [8]; 72 ± 3% at GluN1-1a L135N/GluN2B WT [11]; 92 ± 2% at GluN1-1a S132A/GluN2B WT [13]; 92 ± 2% at GluN1-1a Y109S/GluN2B WT [15]; 66 ± 3% at GluN1-1a WT/GluN2B I111A [17]. The “A2 ± SE” value at GluN1-1a WT/GluN2B E236A [22] is recorded as 85 ± 1%. Besides, the inhibition at 10 µM at GluN1-1a/GluN2A NMDAR was 4 ± 1%; on GluN1-1a/GluN2D NMDAR, 18 ± 3%; in [1] it was 95 ± 1%; at GluN1-1a/GluN2C NMDAR, 8 ± 1%. In addition, the figures for the “EPSC amplitude, % of the initial baseline (SEM)” value in [14] (2 µM compound) and in experiment [14] (7 µM compound) were 60.2 ± 2.8% and 13.8 ± 1.4%, respectively. The “EPSC amplitude after washout, % of the initial baseline (SEM)” value in experiment [14] is listed as 30.9 ± 3.6%. Besides, the “p (slope of the dose-response curve)” value in experiment [1] (wildtype) is on record as 1.11. For the same molecule, in [1] (wildtype), the “A2 ± SE (maximum inhibition from dose-response curve)” value was 93 ± 1%.

As to `CC(C(O)c1ccc(O)cc1)N1CCC(Cc2ccccc2)CC1` (stereo not drawn) [ifenprodil, reference compound], the “p (slope)” value amounted to 0.57 at GluN1-1a WT/GluN2B F176Y [3]; 0.64 on GluN1-1a WT/GluN2B Q110A [6]; 1.09 on GluN1-1a F113S/GluN2B WT [8]; 0.99 at GluN1-1a L135N/GluN2B WT [11]; 0.63 at GluN1-1a WT/GluN2B F114A [12]; 0.79 at GluN1-1a S132A/GluN2B WT [13]. Besides, the “p (slope)” value is 0.88 at GluN1-1a Y109S/GluN2B WT [15], 0.90 at GluN1-1a WT/GluN2B I111A [17], 0.87 on GluN1-1a WT/GluN2B F176A [19] and 1.18 on GluN1-1a WT/GluN2B E236A [22]. Further, the “A2, fixed-to-wildtype (*)” value at GluN1-1a WT/GluN2B F176Y [3], on GluN1-1a WT/GluN2B F114A [12] and at GluN1-1a WT/GluN2B F176A [19] was 94% in each case. Further, the “A2 ± SE” value was determined as 98 ± 5% at GluN1-1a WT/GluN2B Q110A [6]; 72 ± 3% on GluN1-1a F113S/GluN2B WT [8]; 76 ± 3% on GluN1-1a L135N/GluN2B WT [11]; 89 ± 3% at GluN1-1a S132A/GluN2B WT [13]; 74 ± 2% on GluN1-1a Y109S/GluN2B WT [15]; 68 ± 7% at GluN1-1a WT/GluN2B I111A [17]. Further, the “A2 ± SE” value at GluN1-1a WT/GluN2B E236A [22] worked out at 88 ± 5%. The inhibition at 10 µM on GluN1-1a/GluN2A NMDAR was 5 ± 1%; at GluN1-1a/GluN2D NMDAR it was 24 ± 4%; in [1], 91 ± 1%; at GluN1-1a/GluN2C NMDAR, 9 ± 1%. Moreover, the results for the “EPSC amplitude, % of the initial baseline (SEM)” value in experiment [14] (1 µM compound) and in [14] (6 µM compound) were 74.4 ± 8.9% and 22.7 ± 4.7%, respectively. Also, the “EPSC amplitude after washout, % of the initial baseline (SEM)” value in experiment [14] is on record as 31.9 ± 5%. The “p (slope of the dose-response curve)” value in [1] (wildtype) amounted to 0.97. Besides, the “A2 ± SE (maximum inhibition from dose-response curve)” value in [1] (wildtype) is 94 ± 2%.

With `Oc1ccc2c(c1)CCN([C@H]1CC[C@@H](c3ccccc3)CC1)CC2O` (stereo partly drawn) [compound 7], in [1] (wildtype), the IC50 turned out to be 7210 ± 1770 nM and the “p (slope of the dose-response curve)” value was found to be 0.62. Besides, the “A2 (maximum inhibition), set as identical with rac-1” value in experiment [1] is reported as 93^d %.

As for `Oc1ccc2c(c1)CCN([C@H]1CC[C@H](c3ccccc3)CC1)CC2O` (stereo partly drawn) [compound 6], in [1] (wildtype), the IC50 was determined as 2630 ± 296 nM and the “p (slope of the dose-response curve)” value is recorded as 0.70. Also, the “A2 (maximum inhibition), set as identical with rac-1” value in experiment [1] was 93^d %.
